Where “and” joins values, the source holds several entries; their conditions need not be identical. Identical values can stand only once. Toxic doses and inconclusive results are not listed.
Test system: CD2F1 mice, L1210 leukemia ip, survival T/C
Assay: NCI In Vivo Anticancer Drug Screen. Data for tumor model L1210 Leukemia (intraperitoneal) in CD2F1 (CDF1) mice
Conditions: higher = longer survival
How it was run: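 Activity against a transplanted murine tumor was judged by comparing the compound group with a vehicle group. The outcome in the treated animals was divided by that in the controls.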

[1] = endpoint: mean survival time, dose: 100.0 mg/kg/injection, schedule: Q04DX003 (ip), vehicle: saline with Tween-80
[2] = endpoint: mean survival time, dose: 200.0 mg/kg/injection, schedule: Q04DX003 (ip), vehicle: saline with Tween-80
[3] = endpoint: mean survival time, dose: 400.0 mg/kg/injection, schedule: Q04DX003 (ip), vehicle: saline with Tween-80
[4] = endpoint: mean survival time, dose: 4.0 mg/kg/injection, schedule: Q01DX009 (ip), vehicle: saline

With `CCCCOC(=O)/C=C(\CC(=O)OCCCC)C(=O)OCCCC` the T/C (endpoint: mean survival time, dose: 100.0 mg/kg/injection, schedule: Q01DX001 (ip), vehicle: saline with Tween-80) was 97 % of control, the T/C (endpoint: mean survival time, dose: 200.0 mg/kg/injection, schedule: Q01DX001 (ip), vehicle: saline with Tween-80) was 97 % of control and the T/C (endpoint: mean survival time, dose: 400.0 mg/kg/injection, schedule: Q01DX001 (ip), vehicle: saline with Tween-80) was 103 % of control.

With `CCOC(=O)NC1CCC1NC(=O)OCC` (stereo not drawn) the T/C [1] was 95 % of control, the T/C [2] was 106 % of control and the T/C [3] was 107 % of control.

`CCOC(=O)/C=C\C1=CCCC1` was tested, and the T/C (endpoint: mean survival time, dose: 50.0 mg/kg/injection, schedule: Q01DX009 (ip), vehicle: saline) was 102 % of control, the T/C (endpoint: mean survival time, dose: 100.0 mg/kg/injection, schedule: Q01DX009 (ip), vehicle: saline) was 98 % of control and the T/C (endpoint: mean survival time, dose: 200.0 mg/kg/injection, schedule: Q01DX009 (ip), vehicle: saline) was 102 % of control.

`CC1CCC[N-]C1.CC1CCC[N-]C1.CC1CCC[N-]C1.CC1CCC[N-]C1.[Cl][Rh][Cl]` (stereo not drawn) was tested, and the T/C [4] was 109 % of control, the T/C (endpoint: mean survival time, dose: 6.0 mg/kg/injection, schedule: Q01DX009 (ip), vehicle: saline) was 122 % of control and the T/C (endpoint: mean survival time, dose: 9.0 mg/kg/injection, schedule: Q01DX009 (ip), vehicle: saline) was 114 % of control.

For `COc1cc2cc[n+](C)cc2cc1OC`, the T/C (endpoint: mean survival time, dose: 25.0 mg/kg/injection, schedule: Q01DX009 (ip), vehicle: water) was 98 % of control, the T/C (endpoint: mean survival time, dose: 50.0 mg/kg/injection, schedule: Q01DX009 (ip), vehicle: water) was 103 % of control and the T/C (endpoint: mean survival time, dose: 100.0 mg/kg/injection, schedule: Q01DX009 (ip), vehicle: water) was 101 % of control.

For `Cc1c(OCc2ccccc2)cccc1[N+](=O)[O-]`, the T/C (endpoint: mean survival time, dose: 100.0 mg/kg/injection, schedule: Q01DX009 (ip), vehicle: other) was 97 % of control, the T/C [1] was 92 % of control and the T/C (endpoint: mean survival time, dose: 200.0 mg/kg/injection, schedule: Q01DX009 (ip), vehicle: other) was 105 % of control. For the same compound, the T/C [2] was 87 % of control, the T/C (endpoint: mean survival time, dose: 400.0 mg/kg/injection, schedule: Q01DX009 (ip), vehicle: other) was 112 % of control and the T/C [3] was 90 % of control.

`C=CCNc1ncnc2c1ncn2C1OC(CO)C(O)C1O` (stereo not drawn) was tested, and the T/C (endpoint: mean survival time, dose: 75.0 mg/kg/injection, schedule: Q01DX001 (ip), vehicle: other) was 112 % of control and the T/C (endpoint: mean survival time, dose: 150.0 mg/kg/injection, schedule: Q01DX001 (ip), vehicle: other) was 103 % of control.

For `O=CN(CCNc1ccccc1)c1ccccc1`, the T/C [1] was 96 % of control, the T/C [2] was 101 % of control and the T/C [3] was 95 % of control.

`N#Cc1nnn(C2OC(CO)C(O)C2O)c1C#N` (stereo not drawn) was tested, and the T/C (endpoint: mean survival time, dose: 12.5 mg/kg/injection, schedule: Q01DX005 (ip), vehicle: other) was 100 % of control, the T/C (endpoint: mean survival time, dose: 25.0 mg/kg/injection, schedule: Q01DX005 (ip), vehicle: other) was 97 % of control and the T/C (endpoint: mean survival time, dose: 50.0 mg/kg/injection, schedule: Q01DX005 (ip), vehicle: other) was 96 % of control. For the same compound, the T/C (endpoint: mean survival time, dose: 100.0 mg/kg/injection, schedule: Q01DX005 (ip), vehicle: other) was 94 % of control and the T/C (endpoint: mean survival time, dose: 200.0 mg/kg/injection, schedule: Q01DX005 (ip), vehicle: other) was 102 % of control.

In the case of `Nc1ncn(C2CC(O)C(CO)O2)c(=O)n1` (stereo not drawn), the T/C (endpoint: mean survival time, dose: 0.12 mg/kg/injection, schedule: Q01DX009 (ip), vehicle: saline) is reported as 160 % of control and 175 % of control, the T/C (endpoint: mean survival time, dose: 0.25 mg/kg/injection, schedule: Q01DX009 (ip), vehicle: Klucel (hydroxypropylcellulose) (HPC)) is reported as 195 % of control and the T/C (endpoint: mean survival time, dose: 0.25 mg/kg/injection, schedule: Q01DX009 (ip), vehicle: saline) is reported as 193 % of control and 221 % of control. For the same compound, the T/C (endpoint: mean survival time, dose: 0.5 mg/kg/injection, schedule: Q01DX009 (ip), vehicle: Klucel (hydroxypropylcellulose) (HPC)) was 219 % of control, the T/C (endpoint: mean survival time, dose: 0.5 mg/kg/injection, schedule: Q01DX009 (ip), vehicle: saline) was 229 % of control and 258 % of control and the T/C (endpoint: mean survival time, dose: 1.0 mg/kg/injection, schedule: Q01DX009 (ip), vehicle: Klucel (hydroxypropylcellulose) (HPC)) was 227 % of control. The T/C (endpoint: mean survival time, dose: 1.0 mg/kg/injection, schedule: Q01DX009 (ip), vehicle: saline) was 258 % of control and 296 % of control, the T/C (endpoint: mean survival time, dose: 4.0 mg/kg/injection, schedule: Q01DX009 (ip), vehicle: Klucel (hydroxypropylcellulose) (HPC)) was 113 % of control and the T/C [4] was 121 % of control. The T/C (endpoint: mean survival time, dose: 8.0 mg/kg/injection, schedule: Q01DX009 (ip), vehicle: Klucel (hydroxypropylcellulose) (HPC)) was 98 % of control, the T/C (endpoint: median survival time, dose: 0.25 mg/kg/injection, schedule: Q01DX009 (ip), vehicle: saline) was 211 % of control and the T/C (endpoint: median survival time, dose: 0.5 mg/kg/injection, schedule: Q01DX009 (ip), vehicle: saline) was 247 % of control. For the same compound, the T/C (endpoint: median survival time, dose: 1.0 mg/kg/injection, schedule: Q01DX009 (ip), vehicle: saline) was 297 % of control and the T/C (endpoint: median survival time, dose: 8.0 mg/kg/injection, schedule: Q01DX009 (ip), vehicle: saline) was 117 % of control.

For `N#CC(CC(=O)c1ccc(Br)cc1)c1ccccc1` (stereo not drawn), the T/C [1] was 95 % of control, the T/C [2] was 91 % of control and the T/C [3] was 95 % of control.
